Tested on: 889142-216-R-J1-PDC complex spheroid viability
Assay: Anticancer human tumor 889142-216-R-J1-PDC patient-derived bladder carcinoma cell line growth inhibition [POLQ]
Conditions: for IC50: curve of first compound; for viability, T/C: stronger effect = lower value
Procedure, shortened: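 PDC + HUVEC + MSC complex spheroids; POLQ inhibitors ± partner drugs; top conc. at/near clinical Cmax, else 10 microM (SN-38 1 microM), half-log dilutions; 37 degrees C, 5% CO2.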

[1] = second compound 0.0316 µM, first compound 0.0316 µM
[2] = second compound 0.0316 µM, first compound 0.1 µM
[3] = second compound 0.0316 µM, first compound 0.316 µM
[4] = second compound 0.0316 µM, first compound 1 µM
[5] = second compound 0.0316 µM, first compound 3.16 µM
[6] = second compound 0.0316 µM, first compound 10 µM
[7] = second compound 0.1 µM, first compound 0.0316 µM
[8] = second compound 0.1 µM, first compound 0.1 µM
[9] = second compound 0.1 µM, first compound 0.316 µM
[10] = second compound 0.1 µM, first compound 1 µM
[11] = second compound 0.1 µM, first compound 3.16 µM
[12] = second compound 0.1 µM, first compound 10 µM
[13] = second compound 0.316 µM, first compound 0.0316 µM
[14] = second compound 0.316 µM, first compound 0.1 µM
[15] = second compound 0.316 µM, first compound 0.316 µM
[16] = second compound 0.316 µM, first compound 1 µM
[17] = second compound 0.316 µM, first compound 3.16 µM
[18] = second compound 0.316 µM, first compound 10 µM
[19] = second compound 1 µM, first compound 0.0316 µM
[20] = second compound 1 µM, first compound 0.1 µM
[21] = second compound 1 µM, first compound 0.316 µM
[22] = second compound 1 µM, first compound 1 µM
[23] = second compound 1 µM, first compound 3.16 µM
[24] = second compound 1 µM, first compound 10 µM
[25] = second compound 3.16 µM, first compound 0.0316 µM
[26] = second compound 3.16 µM, first compound 0.1 µM
[27] = second compound 3.16 µM, first compound 0.316 µM
[28] = second compound 3.16 µM, first compound 1 µM
[29] = second compound 3.16 µM, first compound 3.16 µM
[30] = second compound 3.16 µM, first compound 10 µM
[31] = second compound 10 µM, first compound 0.0316 µM
[32] = second compound 10 µM, first compound 0.1 µM
[33] = second compound 10 µM, first compound 0.316 µM
[34] = second compound 10 µM, first compound 1 µM
[35] = second compound 10 µM, first compound 3.16 µM
[36] = second compound 10 µM, first compound 10 µM
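Note: spheroids exposed to compounds for seven days.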
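Throughout, for viability, T/C: 100% = DMSO vehicle control viability.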

What does the source list for COc1cccc2c1C(=O)c1c(O)c3c(c(O)c1C2=O)CC(O)(C(=O)CO)CC3OC1CC(N)C(O)C(C)O1 (stereo unspecified) + Nc1ccc(C#CCN(C(=O)Cc2ncc(C(F)(F)F)cc2C(F)(F)F)c2ccc(F)cc2)nn1?
IC50 (second compound 0.0316 µM): 338 nM; IC50 (second compound 0.1 µM): 339 nM; IC50 (second compound 0.316 µM): 254 nM; IC50 (second compound 1 µM): 450 nM; IC50 (second compound 3.16 µM): 287 nM; IC50 (second compound 10 µM): 318 nM; viability, T/C [1]: 55.1%; viability, T/C [2]: 78.9%; viability, T/C [3]: 52.2%; viability, T/C [4]: 6.13%; viability, T/C [5]: 0.74%; viability, T/C [6]: 1.95%; viability, T/C [7]: 71.8%; viability, T/C [8]: 79.8%; viability, T/C [9]: 52%; viability, T/C [10]: 9.08%; viability, T/C [11]: 1.08%; viability, T/C [12]: 1.72%; viability, T/C [13]: 66.6%; viability, T/C [14]: 76.2%; viability, T/C [15]: 44.1%; viability, T/C [16]: 8.99%; viability, T/C [17]: 1.03%; viability, T/C [18]: 1.55%; viability, T/C [19]: 77.8%; viability, T/C [20]: 75.3%; viability, T/C [21]: 68.6%; viability, T/C [22]: 7.94%; viability, T/C [23]: 1.14%; viability, T/C [24]: 2.34%; viability, T/C [25]: 66%; viability, T/C [26]: 77.7%; viability, T/C [27]: 47.9%; viability, T/C [28]: 4.28%; viability, T/C [29]: 0.84%; viability, T/C [30]: 1.58%; viability, T/C [31]: 71.5%; viability, T/C [32]: 72.3%; viability, T/C [33]: 50.2%; viability, T/C [34]: 3.75%; viability, T/C [35]: 1.07%; viability, T/C [36]: 1.08%

With Nc1ccn(C2OC(CO)C(O)C2(F)F)c(=O)n1 (stereo unspecified) + Nc1ccc(C#CCN(C(=O)Cc2ncc(C(F)(F)F)cc2C(F)(F)F)c2ccc(F)cc2)nn1 as the compound, how does the IC50 (second compound 0.0316 µM) read?
Its IC50 is 233 nM.

What about the IC50 (second compound 0.1 µM) of the same compound?
Its IC50 is 386 nM.

What about the IC50 (second compound 0.316 µM) of the same compound?
Its IC50 is 363 nM.

And the IC50 (second compound 1 µM)?
Its IC50 is 292 nM.

What about the IC50 (second compound 3.16 µM) of the same compound?
The IC50 was 3390 nM.

And the IC50 (second compound 10 µM)?
The IC50 was 5260 nM.

What about the viability, T/C [1] of the same compound?
Its viability, T/C is 74.1%.

What about the viability, T/C [2] of the same compound?
The viability, T/C was 56.1%.

And the viability, T/C [3]?
Its viability, T/C is 46%.

And the viability, T/C [4]?
Its viability, T/C is 45.2%.

And the viability, T/C [5]?
Its viability, T/C is 40.9%.

And the viability, T/C [6]?
Its viability, T/C is 35.9%.

And the viability, T/C [7]?
Its viability, T/C is 62.8%.

What about the viability, T/C [8] of the same compound?
Its viability, T/C is 57.8%.

And the viability, T/C [9]?
The viability, T/C was 48.9%.

And the viability, T/C [10]?
Its viability, T/C is 47.2%.

What about the viability, T/C [11] of the same compound?
The viability, T/C was 38.8%.

What about the viability, T/C [12] of the same compound?
Its viability, T/C is 34.5%.

And the viability, T/C [13]?
Its viability, T/C is 61.8%.

And the viability, T/C [14]?
The viability, T/C was 56.1%.

And the viability, T/C [15]?
The viability, T/C was 50.9%.

And the viability, T/C [16]?
Its viability, T/C is 44%.

What about the viability, T/C [17] of the same compound?
The viability, T/C was 45.6%.

And the viability, T/C [18]?
Its viability, T/C is 39.6%.

And the viability, T/C [19]?
The viability, T/C was 69.8%.

And the viability, T/C [20]?
Its viability, T/C is 55.6%.

What about the viability, T/C [21] of the same compound?
The viability, T/C was 47%.

And the viability, T/C [22]?
The viability, T/C was 48.5%.

What about the viability, T/C [23] of the same compound?
The viability, T/C was 43.5%.

What about the viability, T/C [24] of the same compound?
Its viability, T/C is 36.7%.

And the viability, T/C [25]?
The viability, T/C was 56.4%.

And the viability, T/C [26]?
The viability, T/C was 60.7%.

And the viability, T/C [27]?
The viability, T/C was 60%.

And the viability, T/C [28]?
The viability, T/C was 55.7%.

What about the viability, T/C [29] of the same compound?
The viability, T/C was 49.5%.

What about the viability, T/C [30] of the same compound?
Its viability, T/C is 39.7%.

What about the viability, T/C [31] of the same compound?
Its viability, T/C is 88.9%.

What about the viability, T/C [32] of the same compound?
The viability, T/C was 73.6%.

What about the viability, T/C [33] of the same compound?
Its viability, T/C is 69.5%.

And the viability, T/C [34]?
Its viability, T/C is 51.7%.

What about the viability, T/C [35] of the same compound?
The viability, T/C was 55.7%.

And the viability, T/C [36]?
The viability, T/C was 46.5%.

How did the IC50 (second compound 0.0316 µM) turn out when O=c1[nH]cc(F)c(=O)[nH]1 + Nc1ccc(C#CCN(C(=O)Cc2ncc(C(F)(F)F)cc2C(F)(F)F)c2ccc(F)cc2)nn1 was run?
Its IC50 is over 10000 nM.

What about the IC50 (second compound 0.1 µM) of the same compound?
The IC50 was over 10000 nM.

What about the IC50 (second compound 0.316 µM) of the same compound?
Its IC50 is over 10000 nM.

And the IC50 (second compound 1 µM)?
Its IC50 is over 10000 nM.

And the IC50 (second compound 3.16 µM)?
The IC50 was over 10000 nM.

And the IC50 (second compound 10 µM)?
Its IC50 is over 10000 nM.

What about the viability, T/C [1] of the same compound?
Its viability, T/C is 91.6%.

And the viability, T/C [2]?
The viability, T/C was 86.2%.

What about the viability, T/C [3] of the same compound?
The viability, T/C was 90%.

What about the viability, T/C [4] of the same compound?
The viability, T/C was 80%.

And the viability, T/C [5]?
The viability, T/C was 81.1%.

What about the viability, T/C [6] of the same compound?
The viability, T/C was 60.7%.

What about the viability, T/C [7] of the same compound?
Its viability, T/C is 91.1%.

What about the viability, T/C [8] of the same compound?
Its viability, T/C is 78.8%.

And the viability, T/C [9]?
The viability, T/C was 58.8%.

And the viability, T/C [10]?
The viability, T/C was 75.1%.

What about the viability, T/C [11] of the same compound?
Its viability, T/C is 67.1%.

And the viability, T/C [12]?
Its viability, T/C is 69.1%.

What about the viability, T/C [13] of the same compound?
The viability, T/C was 108%.

And the viability, T/C [14]?
The viability, T/C was 73.9%.

And the viability, T/C [15]?
The viability, T/C was 68%.

And the viability, T/C [16]?
The viability, T/C was 82.7%.

And the viability, T/C [17]?
Its viability, T/C is 68.3%.

What about the viability, T/C [18] of the same compound?
Its viability, T/C is 61.7%.

What about the viability, T/C [19] of the same compound?
Its viability, T/C is 83.4%.

What about the viability, T/C [20] of the same compound?
The viability, T/C was 101%.

And the viability, T/C [21]?
Its viability, T/C is 79.8%.

What about the viability, T/C [22] of the same compound?
Its viability, T/C is 66.6%.

What about the viability, T/C [23] of the same compound?
Its viability, T/C is 61.9%.

What about the viability, T/C [24] of the same compound?
The viability, T/C was 60.1%.

What about the viability, T/C [25] of the same compound?
The viability, T/C was 82.7%.

And the viability, T/C [26]?
The viability, T/C was 89.2%.

And the viability, T/C [27]?
The viability, T/C was 83.3%.

What about the viability, T/C [28] of the same compound?
Its viability, T/C is 67.4%.

And the viability, T/C [29]?
The viability, T/C was 72.4%.

What about the viability, T/C [30] of the same compound?
Its viability, T/C is 73.8%.

What about the viability, T/C [31] of the same compound?
The viability, T/C was 109%.

What about the viability, T/C [32] of the same compound?
The viability, T/C was 103%.

What about the viability, T/C [33] of the same compound?
Its viability, T/C is 83.2%.

What about the viability, T/C [34] of the same compound?
Its viability, T/C is 78.4%.

What about the viability, T/C [35] of the same compound?
Its viability, T/C is 68.6%.

And the viability, T/C [36]?
The viability, T/C was 67.2%.
